Measured values as given in US8575158B2, “1-phenyl-substituted heterocyclyl derivatives and their use as prostaglandin D2 receptor modulators” (Actelion Pharmaceuticals Ltd., priority 2010, dated 2013).
pIC50: −log10 of the molar value.

molecular target: T1, hCRTH2 receptor (Homo sapiens, UniProt Q9Y5Y4); test: Radioligand displacement assay (3H-PGD2) on hCRTH2 receptor membranes; format: binding; details: antagonistic activity, 3H-PGD2 radioligand displacement, HEK293-hCRTH2 membranes
T1 construct: expressed in transfected cells; host or cells: HEK293
T1 sequence (Q9Y5Y4 1-395): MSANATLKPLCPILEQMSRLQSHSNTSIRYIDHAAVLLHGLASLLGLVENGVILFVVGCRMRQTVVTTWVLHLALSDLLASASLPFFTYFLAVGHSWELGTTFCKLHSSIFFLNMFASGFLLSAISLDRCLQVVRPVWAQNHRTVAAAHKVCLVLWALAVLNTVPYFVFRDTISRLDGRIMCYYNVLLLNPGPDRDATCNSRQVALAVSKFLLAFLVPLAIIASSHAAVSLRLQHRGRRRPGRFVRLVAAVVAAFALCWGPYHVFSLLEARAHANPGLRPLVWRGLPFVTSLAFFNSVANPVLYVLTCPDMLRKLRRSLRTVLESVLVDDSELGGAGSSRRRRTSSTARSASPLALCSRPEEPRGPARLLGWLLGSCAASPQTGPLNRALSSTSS

Row | Compound | pIC50
1 | Cc1cnn(COC(=O)N2CCc3cc(F)ccc3[C@H]2c2cc(Cl)ccc2OCC(=O)O)c1 [Example 342, (S)-1-(2-Carboxymethoxy-5-chloro-phenyl)-6-fluoro-3,4-dihydro-1H-isoquinoline-2-carboxylic acid 4-methyl-pyrazol-1-ylmethyl ester] | 7.75
2 | O=C(O)COc1ccc(Cl)cc1[C@@H]1c2ccc(F)cc2CCN1C(=O)OCc1nc2ccccc2s1 [Example 344, (S)-1-(2-Carboxymethoxy-5-chloro-phenyl)-6-fluoro-3,4-dihydro-1H-isoquinoline-2-carboxylic acid benzothiazol-2-ylmethyl ester] | 7.42
3 | O=C(O)COc1ccc(Cl)cc1[C@@H]1c2ccc(F)cc2CCN1C(=O)OCc1nc2ccccc2o1 [Example 345, (S)-1-(2-Carboxymethoxy-5-chloro-phenyl)-6-fluoro-3,4-dihydro-1H-isoquinoline-2-carboxylic acid benzooxazol-2-ylmethyl ester] | 7.91
4 | Cn1nc(COC(=O)N2CCc3cc(F)ccc3[C@H]2c2cc(Cl)ccc2OCC(=O)O)c2ccccc21 [Example 346, (S)-1-(2-Carboxymethoxy-5-chloro-phenyl)-6-fluoro-3,4-dihydro-1H-isoquinoline-2-carboxylic acid 1-methyl-1H-indazol-3-ylmethyl ester] | 8.94
5 | O=C(O)COc1ccc(Cl)cc1[C@@H]1c2ccc(F)cc2CCN1C(=O)OCn1ncc2ccccc21 [Example 347, (S)-1-(2-Carboxymethoxy-5-chloro-phenyl)-6-fluoro-3,4-dihydro-1H-isoquinoline-2-carboxylic acid indazol-1-ylmethyl ester] | 9.06
6 | O=C(O)COc1ccc(Cl)cc1[C@@H]1c2ccc(F)c(F)c2CCN1C(=O)OCc1cccc(F)c1F [Example 351, (S)-1-(2-Carboxymethoxy-5-chloro-phenyl)-5,6-difluoro-3,4-dihydro-1H-isoquinoline-2-carboxylic acid 2,3-difluoro-benzyl ester] | 8.49
7 | O=C(O)COc1ccc(Cl)cc1[C@@H]1c2ccc(F)cc2CCN1C(=O)OCc1cccc(F)c1 [Example 353, (S)-1-(2-Carboxymethoxy-5-chloro-phenyl)-6-fluoro-3,4-dihydro-1H-isoquinoline-2-carboxylic acid 3-fluoro-benzyl ester] | 8.55
8 | O=C(O)COc1ccc(Cl)cc1[C@@H]1c2ccc(F)cc2CCN1C(=O)OCc1cccc(F)c1F [Example 354, (S)-1-(2-Carboxymethoxy-5-chloro-phenyl)-6-fluoro-3,4-dihydro-1H-isoquinoline-2-carboxylic acid 2,3-difluoro-benzyl ester] | 8.11
9 | COc1ccccc1COC(=O)N1CCc2ccccc2[C@H]1c1cc(Cl)ccc1OCC(=O)O [Example 356, (S)-1-(2-Carboxymethoxy-5-chloro-phenyl)-3,4-dihydro-1H-isoquinoline-2-carboxylic acid 2-methoxy-benzyl ester] | 8.45
10 | O=C(O)COc1ccc(Cl)cc1[C@@H]1c2ccccc2CCN1C(=O)OCc1ccccc1F [Example 357, (S)-1-(2-Carboxymethoxy-5-chloro-phenyl)-3,4-dihydro-1H-isoquinoline-2-carboxylic acid 2-fluoro-benzyl ester] | 8.91
11 | Cc1nn(CCC(=O)N2CCc3cc(F)ccc3[C@H]2c2cc(Cl)ccc2OCC(=O)O)c2cccc(F)c12 [Example 391] | 6.80
12 | Cc1nn(CCC(=O)N2CCc3cc(F)ccc3[C@H]2c2cc(Cl)ccc2OCC(=O)O)c2c(F)cccc12 [Example 392] | 6.56
13 | Cc1nn(CCC(=O)N2CCc3cc(F)ccc3[C@H]2c2cc(Cl)ccc2OCC(=O)O)c2cc(F)ccc12 [Example 393] | 6.81
14 | O=C(O)COc1ccc(Cl)cc1[C@@H]1c2ccc(F)cc2CCN1C(=O)CCn1ncc2cc(F)ccc21 [Example 395, (4-Chloro-2-{(S)-6-fluoro-2-[3-(5-fluoro-indazol-1-yl)-propionyl]-1,2,3,4-tetrahydro-isoquinolin-1-yl}-phenoxy)-acetic acid] | 7.55
15 | O=C(O)COc1ccc(Cl)cc1[C@@H]1c2ccc(F)cc2CCN1C(=O)CCn1ncc2cc(Cl)ccc21 [Example 396] | 6.82
16 | O=C(O)COc1ccc(Cl)cc1[C@@H]1c2ccc(F)cc2CCN1C(=O)CCn1ncc2ccc(F)cc21 [Example 398] | 7.19
17 | O=C(O)COc1ccc(Cl)cc1[C@@H]1c2ccc(F)cc2CCN1C(=O)CCn1ncc2c(F)cccc21 [Example 399] | 6.84

Continued, values first:

Row | pIC50 | Compound
18 | 6.58 | Cc1nc2ccccc2n1CCOC(=O)N1CCc2cc(F)ccc2[C@H]1c1cc(Cl)ccc1OCC(=O)O [Example 343]
19 | 9.40 | O=C(O)COc1ccc(Cl)cc1[C@@H]1c2ccc(F)cc2CCN1C(=O)OCc1noc2ccccc12 [Example 348, (S)-1-(2-Carboxymethoxy-5-chloro-phenyl)-6-fluoro-3,4-dihydro-1H-isoquinoline-2-carboxylic acid benzo[d]isoxazol-3-ylmethyl ester]
20 | 8.05 | O=C(O)COc1ccc(Cl)cc1[C@@H]1c2ccc(F)c(F)c2CCN1C(=O)OCc1ccccc1F [Example 349, (S)-1-(2-Carboxymethoxy-5-chloro-phenyl)-5,6-difluoro-3,4-dihydro-1H-isoquinoline-2-carboxylic acid 2-fluoro-benzyl ester]
21 | 8.47 | O=C(O)COc1ccc(Cl)cc1[C@@H]1c2ccc(F)c(F)c2CCN1C(=O)OCc1cccc(F)c1 [Example 350, (S)-1-(2-Carboxymethoxy-5-chloro-phenyl)-5,6-difluoro-3,4-dihydro-1H-isoquinoline-2-carboxylic acid 3-fluoro-benzyl ester]
22 | 8.73 | O=C(O)COc1ccc(Cl)cc1[C@@H]1c2ccc(F)cc2CCN1C(=O)OCc1ccccc1F [Example 352, (S)-1-(2-Carboxymethoxy-5-chloro-phenyl)-6-fluoro-3,4-dihydro-1H-isoquinoline-2-carboxylic acid 2-fluoro-benzyl ester]
23 | 8.70 | O=C(O)COc1ccc(Cl)cc1[C@@H]1c2ccccc2CCN1C(=O)OCc1cccc(F)c1 [Example 355, (S)-1-(2-Carboxymethoxy-5-chloro-phenyl)-3,4-dihydro-1H-isoquinoline-2-carboxylic acid 3-fluoro-benzyl ester]
24 | 8.55 | O=C(O)COc1ccc(Cl)cc1[C@@H]1c2cccc(F)c2CCN1C(=O)OCc1cccc(F)c1 [Example 358, (S)-1-(2-Carboxymethoxy-5-chloro-phenyl)-5-fluoro-3,4-dihydro-1H-isoquinoline-2-carboxylic acid 3-fluoro-benzyl ester]
25 | 8.75 | O=C(O)COc1ccc(Cl)cc1[C@@H]1c2cccc(F)c2CCN1C(=O)OCc1ccccc1F [Example 359, (S)-1-(2-Carboxymethoxy-5-chloro-phenyl)-5-fluoro-3,4-dihydro-1H-isoquinoline-2-carboxylic acid 2-fluoro-benzyl ester]
26 | 8.31 | O=C(O)COc1ccc(Cl)cc1[C@@H]1c2ccc(F)cc2CCN1C(=O)OCc1ccccc1 [Example 367]
27 | 6.73 | Cc1nn(CCC(=O)N2CCc3cc(F)ccc3[C@H]2c2cc(Cl)ccc2OCC(=O)O)c2cc(Cl)ccc12 [Example 394]
28 | 7.49 | Cc1nn(CCC(=O)N2CCc3cc(F)ccc3[C@H]2c2cc(Cl)ccc2OCC(=O)O)c2ccccc12 [Example 397, (4-Chloro-2-{(S)-6-fluoro-2-[3-(3-methyl-indazol-1-yl)-propionyl]-1,2,3,4-tetrahydro-isoquinolin-1-yl}-phenoxy)-acetic acid]
